In ChEMBL document CHEMBL4418481, “Chemical agents for the prevention of inhibition or tumor metastasis” (2013) one finds Activity, GI50 and EC50 data, which are given here for 48 compounds.

Molecules are shown by their SMILES. Calls of active or inactive are those of the source. The rule behind the calls is not given here.

One assay deals with MDA-MB-231. In words: Induction of cell death in human MDA-MB-231 cells at 50 uM incubated for 24 hrs by MTT assay relative to untreated control. It is filed as functional.
Conditions: not given
Compound `Cc1oc(-c2ccc(Cl)cc2)cc1C(=O)/C(C#N)=C/c1ccccc1` gave an Activity of 100%.

Another assay concerns MDA-MB-231. The experiment in a line: Growth inhibition of human MDA-MB-231 cells incubated for 24 hrs by MTT assay. It is filed as functional.
Conditions: not given
Take `O=C(O)C[C@@H]1OCC=C2CN3CC[C@]45C6=CC(=O)C(=O)C([N+](=O)[O-])=C6N[C@H]4[C@H]1[C@H]2C[C@H]35`: the GI50 result was “inactive”.

Still in this assay, the particulars now being: MDA-MB-231, 24 h.
`O=C1NC(=S)S/C1=C/c1cc([N+](=O)[O-])ccc1Sc1ccc(C(F)(F)F)cn1` had a concentration for 50% growth inhibition (GI50) of 190 µM.

A further assay deals with Protein S100-A4 (Homo sapiens, UniProt P26447). The experiment in a line: Binding affinity to S100A4 (unknown origin) assessed as inhibition of S100A4/myosin-2A interaction using fluorescein-tagged myosin-2A peptide (1908 to 1923 residues) by fluorescence polarization assay.
Protein S100-A4, sequence (P26447 whole entry, the tested form may be a part): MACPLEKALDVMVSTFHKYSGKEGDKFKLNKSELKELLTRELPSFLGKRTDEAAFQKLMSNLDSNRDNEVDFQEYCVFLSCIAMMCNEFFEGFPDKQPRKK
Conditions: not given
With `Nc1c2c(=O)[nH]c(=O)c2c(N)c2c(=O)c3ccccc3c(=O)c12`, the EC50 worked out at 36 µM.
`O=C1C(=O)c2cccc([N+](=O)[O-])c2-c2ccccc21`: the EC50 was found to be 2.5 µM.
Turning to `CSC1=CC(=O)c2ccccc2C1=O`, the EC50 is 92.5 µM.
For the compound `CSC1=C(C)C(=O)c2ccccc2C1=O`, the EC50 stood at 64 µM.
With `O=C1C(=O)c2cc(Br)ccc2-c2ccc(Br)cc21`, the EC50 came out at 19 µM.
As to `CC(=O)c1ccc2c(c1)-c1ccccc1C(=O)C2=O`, the EC50 worked out at 2.2 µM.
For `O=C1C(NCCF)=C(Cl)C(=O)c2ncccc21`, the half-maximal effective concentration (EC50) turned out to be 28.7 µM.
Consider `CC(=O)N(C1=C(Cl)C(=O)c2ccccc2C1=O)c1ccc(F)cc1`, for which the EC50 was 96 µM.
Same read-out and setting: the same measure for `O=C(O)CCSC1=CC(=O)c2ccccc2C1=O`: 21 µM; for `CC(=O)NC1=C(Sc2ccc(Cl)cc2)C(=O)c2ccccc2C1=O`: 94 µM; for `Cc1ccc2c(n1)C(=O)C=CC2=O`: 8.6 µM.
As to `NC1=C(Br)C(=O)c2ncccc2C1=O`, the EC50 is 16 µM.
Consider `CC1=C(SCc2ccccc2)C(=O)c2ccccc2C1=O`, for which the EC50 turned out to be 95 µM.
Still for that read-out and setting: the same measure for `O=C1C(=O)c2cc(Cl)ccc2-c2ccccc21`: 1.8 µM.
Still for that read-out and setting: the same measure for `CC1=C(SCCO)C(=O)c2ccccc2C1=O`: 62 µM; for `O=C1C(Cl)=C(Cl)C(=O)c2ncccc21`: 14 µM; for `Cc1ccc(S(=O)(=O)N/N=C2\C(=O)c3ccccc3-c3ccccc32)cc1`: 8.4 µM.
As to `CC(=O)NC1=C(Cl)C(=O)c2ncccc2C1=O`, the concentration for a half-maximal effect (EC50) was 9 µM.
Same read-out and setting: as for `O=C1C(=O)c2cc([N+](=O)[O-])ccc2-c2ccc([N+](=O)[O-])cc21`, the figure is 18 µM; as for `Cc1ccc(C(=O)OC2=CC(=O)c3ccccc3C2=O)cc1`, 64 µM; as for `O=C1C(=O)c2cc(Cl)ccc2-c2ccc(Cl)cc21`, 8.1 to 8.7 µM.
On the same count and under the same terms, the same measure for `O=C1C=C(NCCc2cc(Br)c(O)c(Br)c2)C(=O)c2ncccc21`: 92 µM; for `CCSC1=CC(=O)c2ccccc2C1=O`: 22 µM.
As for `COC1=C(N)C(=O)c2ncccc2C1=O`, the half-maximal effective concentration (EC50) came out at 12 µM.
For `O=C1C(NCCCN2CCCCC2)=CC(=O)c2ncccc21`, the half-maximal effective concentration (EC50) amounted to 85 µM.
On the same count and under the same terms, as for `O=C1C(=O)c2ccccc2-c2ccccc21` [9,10-PHENANTHRENEQUINONE], the figure is 3.8 µM.
Turning to `O=C1C(=O)c2cc([N+](=O)[O-])ccc2-c2ccccc21`, the EC50 lay in the range of 0.5 to 2 µM.
On the same count and under the same terms, as for `NC1=C(Cl)C(=O)c2ncccc2C1=O`, the figure is 13.5 µM; as for `O=C1C(=C(Br)Br)c2ccccc2-c2ccccc21`, 35 µM; as for `O=C1CC(Cl)C(=O)c2ccccc21` (centres undefined), 67.5 µM.
On the same count and under the same terms, as for `O=C1C2=C(SCCS2)C(=O)c2ccccc21`, the figure is 2.2 µM.
Still for that read-out and setting: the same measure for `Nc1ccc2c(c1)C(=O)C(=O)c1ccccc1-2`: 1.6 µM.
As to `CCCCSC1=CC(=O)c2ccccc2C1=O`, the EC50 stood at 40 µM.
For `O=C1C(=C2C=Nc3ccccc32)Nc2ccc(Br)cc21`, the EC50 worked out at 31 µM.
On the same count and under the same terms, as for `CCSC1=C(C)C(=O)c2ccccc2C1=O`, the figure is 51 µM; as for `CC(=O)NC1=CC(=O)c2cccnc2C1=O`, 18 µM; as for `CC1=C(SCC(=O)O)C(=O)c2ccccc2C1=O`, 39 µM.
Still for that read-out and setting: as for `CCCCN(CCCC)CCCNC1=CC(=O)c2ncccc2C1=O`, the figure is 70 µM; as for `O=C1C(=O)c2cc(Br)cc([N+](=O)[O-])c2-c2ccc(Br)cc21`, 8.3 µM; as for `O=C1C=CC(=O)c2ncccc21`, 16 µM.
Take `O=C1NC(=S)S/C1=C/c1cc([N+](=O)[O-])ccc1Sc1ccc(C(F)(F)F)cn1`: the EC50 was 46 µM.
As for `O=C1C=C(SCCO)C(=O)c2ccccc21`, the half-maximal effective concentration (EC50) was determined as 16 µM.
In the case of `O=C1C(=O)c2cccc([N+](=O)[O-])c2-c2c1cccc2[N+](=O)[O-]`, the EC50 is 16 µM.
`O=C1c2ccccc2-c2ccccc2C1(Cl)Cl`: the EC50 lay in the range of 2.5 to 4.8 µM.
With `NC1=CC(=O)c2ncccc2C1=O`, the EC50 stood at 34 µM.
On the same count and under the same terms, the same measure for `O=C1c2ccccc2C(=O)C(Cl)C1Cl` (centres undefined): 27 µM.
